Calls of active or inactive are those of the source. No cut-off for these calls is given here.
Key:
PC-12 = experiment: Neuroprotective activity in H2O2-induced oxidative damage in rat PC12 cells assessed as increase in cell survival rate at 1 to 10 uM pre-incubated for 2 hrs followed by H2O2 addition and measured after 24 hrs by MTT assay; assay type: functional, cell-based; settings: dose 1-10 µM, time 26.0 hrs
BV-2 = experiment: Antineuroinflammatory activity in LPS-induced mouse BV-2 microglial cells assessed as inhibition of nitric oxide production incubated for 24 hrs by Griess reagent assay; assay type: functional, cell-based; settings: BV-2, 24 h
Caenorhabditis elegans = experiment: Anti-alzheimer activity in transgenic Caenorhabditis elegans UM0001 expressing Amyloid-beta/Tau assessed as decrease in dyskinesia measured for 30 mins by basal slowing response assay; assay type: functional, organism-based; settings: dose 1-4 µM

SMILES: C/C=C(\C)C(=O)OC[C@H]1O[C@@H](O[C@H]2[C@H](O)[C@@H](CO)O[C@@H](O[C@H]3[C@H](O[C@@H](CCCC)CCCCCCCCCCC(=O)OC)O[C@H](CO[C@@H]4O[C@H](C)[C@H](O)[C@H](O)[C@H]4O)[C@@H](O)[C@@H]3O)[C@@H]2O[C@@H]2O[C@@H](C)[C@H](OC(=O)[C@H](C)[C@@H](C)OC(=O)[C@H](C)[C@@H](C)O[C@@H]3O[C@H](C)[C@@H](O)[C@H](O)[C@H]3O)[C@@H](O[C@@H]3O[C@H](CO)[C@@H](O)[C@H](O)[C@H]3O)[C@H]2O)[C@H](O)[C@@H](O[C@@H]2O[C@H](CO)[C@@H](O)[C@H](O)[C@H]2O)[C@@H]1O
- Activity (PC-12): Active
- IC50 (BV-2): 19.1 µM

SMILES: C/C=C(\C)C(=O)OC[C@H]1O[C@@H](O[C@H]2[C@H](O)[C@@H](CO)O[C@@H](O[C@H]3[C@H](O[C@@H](CCCC)CCCCCCCCCCC(=O)OC)O[C@H](CO[C@@H]4O[C@H](C)[C@H](O)[C@H](O)[C@H]4O)[C@@H](O)[C@@H]3O)[C@@H]2O[C@@H]2O[C@@H](C)[C@H](OC(=O)[C@H](C)[C@@H](C)OC(=O)[C@H](C)[C@@H](C)O[C@@H]3O[C@H](C)[C@@H](O)[C@H](O)[C@H]3O)[C@@H](O[C@@H]3O[C@H](CO)[C@@H](O)[C@H](O)[C@H]3O)[C@H]2O)[C@H](O)[C@@H](O)[C@@H]1O
- IC50 (BV-2): 9.7 µM

SMILES: CCCC[C@@H](CCCCCCCCCCC(=O)C=O)O[C@@H]1O[C@H](CO[C@H]2O[C@H](C)[C@@H](O)[C@@H](O)[C@H]2O)[C@@H](O)[C@H](O)[C@H]1O[C@@H]1O[C@H](CO)[C@@H](O)[C@H](O[C@@H]2O[C@H](CO)[C@@H](O)[C@H](O)[C@H]2O)[C@H]1O[C@@H]1O[C@@H](C)[C@H](OC(=O)[C@H](C)[C@@H](C)OC(=O)[C@H](C)[C@@H](C)O[C@@H]2O[C@H](C)[C@@H](O)[C@H](O)[C@H]2O[C@@H]2O[C@H](CO)[C@@H](O)[C@H](O)[C@H]2O)[C@@H](O[C@@H]2O[C@H](CO)[C@@H](O)[C@H](O)[C@H]2O)[C@H]1O
- Activity (PC-12): Active

SMILES: C/C=C(\C)C(=O)OC[C@H]1O[C@@H](O[C@H]2[C@H](O)[C@@H](COC(=O)[C@H](C)[C@@H](C)O)O[C@@H](O[C@H]3[C@H](O[C@@H](CCCC)CCCCCCCCCCC(=O)OC)O[C@H](CO[C@@H]4O[C@H](C)[C@H](O)[C@H](O)[C@H]4O)[C@@H](O)[C@@H]3O)[C@@H]2O[C@@H]2O[C@@H](C)[C@H](OC(=O)[C@H](C)[C@@H](C)OC(=O)[C@H](C)[C@@H](C)O[C@@H]3O[C@H](C)[C@@H](O)[C@H](O)[C@H]3O)[C@@H](O[C@@H]3O[C@H](CO)[C@@H](O)[C@H](O)[C@H]3O)[C@H]2O)[C@H](O)[C@@H](O[C@@H]2O[C@H](CO)[C@@H](O)[C@H](O)[C@H]2O)[C@@H]1O
- IC50 (BV-2): 6.73 µM
- Activity (Caenorhabditis elegans): Dose-dependent-effect

SMILES: C/C=C(\C)C(=O)OC[C@H]1O[C@@H](O[C@H]2[C@H](O)[C@@H](COC(=O)[C@H](C)[C@@H](C)O)O[C@@H](O[C@H]3[C@H](O[C@@H](CCCC)CCCCCCCCCCC(=O)OC)O[C@H](CO[C@@H]4O[C@@H](C)[C@H](O)[C@@H](O)[C@H]4O)[C@@H](O)[C@@H]3O)[C@@H]2O[C@@H]2O[C@@H](C)[C@H](OC(=O)[C@H](C)[C@@H](C)OC(=O)[C@H](C)[C@@H](C)O[C@@H]3O[C@H](C)[C@@H](O)[C@H](O)[C@H]3O)[C@@H](O[C@@H]3O[C@H](CO)[C@@H](O)[C@H](O)[C@H]3O)[C@H]2O)[C@H](O)[C@@H](O[C@@H]2O[C@H](CO)[C@@H](O)[C@H](O)[C@H]2O)[C@@H]1O
- Activity (PC-12): Active
- Activity (Caenorhabditis elegans): Dose-dependent-effect

— ChEMBL document CHEMBL6153100, “Controlins I-X, Resin Glycosides from the Seeds of Convolvulus tricolor and Their Biological Activities” (J Nat Prod, 2025)
